For 75 compounds, logP results are on record in the SangsterLogP compilation.

This data set is described as follows: method code SF-GLC, from DOI: 10.1016/0045-6535(89)90321-4.

For `Clc1cc2c(cc1Cl)Oc1c(Cl)c(Cl)cc(Cl)c1O2`, the logP is 6.2.

For the compound `Clc1cc(Cl)c2c(c1Cl)Oc1c(Cl)cc(Cl)c(Cl)c1O2`, the logP was found to be 6.85.

The compound `Clc1cc(Cl)c2c(c1)oc1c(Cl)cc(Cl)cc12` showed a logP of 6.37. The value for `Clc1ccc2c(c1)Oc1cc(Cl)c(Cl)c(Cl)c1O2` was 6.1; that for `Clc1cc(Cl)c2c(c1Cl)Oc1cccc(Cl)c1O2` was 6.1.

Consider `Clc1cc(Cl)c2oc3cc(Cl)c(Cl)cc3c2c1`, for which the logP stood at 6.73. The value for `Clc1cc2c(c(Cl)c1Cl)Oc1c(Cl)ccc(Cl)c1O2` was 6.24. Then `Clc1cc(Cl)c2oc3c(Cl)c(Cl)c(Cl)cc3c2c1`, with 6.59; and `Clc1cc2oc3c(Cl)c(Cl)ccc3c2c(Cl)c1Cl`, with 6.26; and `Clc1cc2c(cc1Cl)Oc1c(cc(Cl)c(Cl)c1Cl)O2`, with 6.64. The value for `Clc1cc(Cl)c2c(oc3ccc(Cl)c(Cl)c32)c1Cl` was 6.51; that for `Clc1cc(Cl)c2oc3c(Cl)ccc(Cl)c3c2c1Cl` was 6.59; that for `Clc1cc(Cl)c2c(c1)Oc1c(Cl)ccc(Cl)c1O2` was 6.25. Regarding `Clc1cc2c(cc1Cl)Oc1c(Cl)ccc(Cl)c1O2`, the logP was determined as 6.39. Then `Clc1cc2oc3cccc(Cl)c3c2c(Cl)c1Cl`, with 6.06; and `Clc1cc2c(c(Cl)c1Cl)Oc1c(Cl)cccc1O2`, with 6.39; and `Clc1ccc2oc3c(Cl)cc(Cl)c(Cl)c3c2c1`, with 6.31. The value for `Clc1cc(Cl)c2c(c1)oc1c(Cl)cc(Cl)c(Cl)c12` was 6.19; that for `Clc1ccc2c(c1)Oc1c(Cl)cc(Cl)c(Cl)c1O2` was 6.25. The value for `Clc1cc(Cl)c2c(c1)Oc1cc(Cl)cc(Cl)c1O2` was 6.39; that for `Clc1cc2c(cc1Cl)Oc1cc(Cl)c(Cl)cc1O2` was 6.42; that for `Clc1cc2c(c(Cl)c1Cl)Oc1c(Cl)c(Cl)cc(Cl)c1O2` was 7.59. `Clc1cc(Cl)c2c(c1)Oc1c(Cl)cc(Cl)cc1O2` returned a logP of 6.29. For the compound `Clc1cc(Cl)c2oc3c(Cl)c(Cl)ccc3c2c1`, the logP was 6.25. The logP values of the last two compounds are within 0.2 log units of each other. The value for `Clc1cc(Cl)c2c(c1)oc1ccc(Cl)c(Cl)c12` was 6.25; that for `Clc1ccc2c(c1)Oc1c(Cl)c(Cl)c(Cl)c(Cl)c1O2` was 6.6. Compound `Clc1cccc2c1Oc1c(Cl)c(Cl)c(Cl)c(Cl)c1O2` yielded a logP of 6.3. Then `Clc1cc(Cl)c2oc3c(Cl)c(Cl)cc(Cl)c3c2c1`, with 6.24. The value for `Clc1ccc2c(c1)oc1c(Cl)c(Cl)c(Cl)c(Cl)c12` was 6.53; that for `Clc1cc(Cl)c2c(c1Cl)Oc1c(Cl)cccc1O2` was 6.1; that for `Clc1cc(Cl)c2c(oc3c(Cl)cccc32)c1Cl` was 6.31. The value for `Clc1cc(Cl)c2oc3c(Cl)cc(Cl)c(Cl)c3c2c1` was 6.34; that for `Clc1ccc2c(oc3c(Cl)cc(Cl)c(Cl)c32)c1Cl` was 6.27. `Clc1ccc2c(c1)Oc1c(cc(Cl)c(Cl)c1Cl)O2`: the logP was 6.1. Compound `Clc1cc(Cl)c2c(c1Cl)Oc1c(Cl)ccc(Cl)c1O2` displayed a logP of 6.6.

For `Clc1ccc2oc3c(Cl)c(Cl)cc(Cl)c3c2c1`, the logP was 6.13. Compound `Clc1cc(Cl)c2c(c1Cl)Oc1c(Cl)c(Cl)cc(Cl)c1O2` gave a logP of 6.85.

`Clc1cc2c(oc3c(Cl)cccc32)c(Cl)c1Cl` came in with a logP of 6.11. The value for `Clc1cc2c(cc1Cl)Oc1c(ccc(Cl)c1Cl)O2` was 6.38; that for `Clc1cc2oc3ccc(Cl)c(Cl)c3c2cc1Cl` was 6.23; that for `Clc1ccc2c(oc3c(Cl)c(Cl)cc(Cl)c32)c1Cl` was 6.19.

On to `Clc1cc2oc3c(Cl)cc(Cl)c(Cl)c3c2cc1Cl`, for which the logP stood at 6.26. This logP and that of the compound before are within 0.2 log units of each other. `Clc1cc(Cl)c2c(c1)oc1c(Cl)c(Cl)cc(Cl)c12` yielded a logP of 6.33. For the compound `Clc1cc(Cl)c2c(c1)Oc1cc(Cl)c(Cl)c(Cl)c1O2`, the logP came out at 6.4. `Clc1cc(Cl)c2c(c1)oc1cc(Cl)cc(Cl)c12` showed a logP of 6.34.

As to `Clc1ccc2oc3c(Cl)c(Cl)c(Cl)c(Cl)c3c2c1`, the logP was 6.79. Then `Clc1cc2c(oc3c(Cl)c(Cl)c(Cl)c(Cl)c32)c(Cl)c1Cl`, with 7.92; and `Clc1cc(Cl)c2oc3cc(Cl)c(Cl)c(Cl)c3c2c1`, with 6.33.

Compound `Clc1cc2c(oc3ccc(Cl)c(Cl)c32)c(Cl)c1Cl` showed a logP of 6.42. The value for `Clc1cc(Cl)c2c(c1)oc1cc(Cl)c(Cl)cc12` was 6.34; that for `Clc1cc2c(oc3cccc(Cl)c32)c(Cl)c1Cl` was 6.17. The value for `Clc1ccc2c(c1)Oc1c(Cl)c(Cl)cc(Cl)c1O2` was 6.25; that for `Clc1cc2oc3c(Cl)cccc3c2c(Cl)c1Cl` was 6.15; that for `Clc1cc(Cl)c2c(c1)Oc1c(cc(Cl)c(Cl)c1Cl)O2` was 6.53.

In turn, `Clc1cc(Cl)c2c(c1)Oc1c(ccc(Cl)c1Cl)O2` yielded a logP of 6.43.

Compound `Clc1cc(Cl)c2c(oc3cccc(Cl)c32)c1Cl` displayed a logP of 5.89. Then `Clc1cc2oc3c(Cl)c(Cl)ccc3c2cc1Cl`, with 6.31; and `Clc1cc2c(c(Cl)c1Cl)Oc1c(Cl)cc(Cl)c(Cl)c1O2`, with 7.59; and `Clc1cc(Cl)c2c(c1)Oc1cc(Cl)c(Cl)cc1O2`, with 6.3. Then `Clc1cc2c(c(Cl)c1Cl)Oc1ccc(Cl)c(Cl)c1O2`, with 6.74; and `Clc1cc(Cl)c2oc3c(Cl)cc(Cl)cc3c2c1`, with 6.17; and `Clc1cc(Cl)c2c(c1)Oc1c(Cl)c(Cl)c(Cl)c(Cl)c1O2`, with 6.85. Then `Clc1cc2c(c(Cl)c1Cl)Oc1cccc(Cl)c1O2`, with 6.86; and `Clc1ccc2c(c1)oc1c(Cl)c(Cl)c(Cl)cc12`, with 6.06; and `Clc1ccc2c(oc3c(Cl)ccc(Cl)c32)c1Cl`, with 6.15. Take `Clc1c(Cl)c(Cl)c2c(oc3ccccc32)c1Cl`: the logP came to 6.17. This logP and that of the compound before are within 0.2 log units of each other. Then `Clc1ccc2c(c1)oc1c(Cl)c(Cl)cc(Cl)c12`, with 6.23; and `Clc1cc(Cl)c2c(oc3c(Cl)ccc(Cl)c32)c1Cl`, with 6.34.

`Clc1ccc2oc3cc(Cl)c(Cl)c(Cl)c3c2c1` displayed a logP of 6.15. The value for `Clc1ccc2c(oc3ccc(Cl)c(Cl)c32)c1Cl` was 6.25; that for `Clc1cc2c(oc3c(Cl)c(Cl)ccc32)c(Cl)c1Cl` was 6.47; that for `Clc1ccc(Cl)c2c1Oc1c(Cl)ccc(Cl)c1O2` was 6.38. On to `Clc1cc2c(oc3c(Cl)ccc(Cl)c32)c(Cl)c1Cl`, for which the logP was determined as 6.53. The value for `Clc1cc(Cl)c2c(c1)Oc1ccc(Cl)c(Cl)c1O2` was 6.86. `Clc1ccc(Cl)c2c1oc1c(Cl)ccc(Cl)c12` had a logP of 5.6.

As a reminder, the logP is a log measure of how a compound divides between an organic and an aqueous phase.
